Measured values: ChEMBL document CHEMBL3784920, “Synthesis and Pharmacological Evaluation of Novel Adenine-Hydrogen Sulfide Slow Release Hybrids Designed as Multitarget Cardioprotective Agents” (J Med Chem, 2016)
Calls of active or inactive are those of the source. The calls are words filed in the database; no cut-off is given here.

How the values were obtained:
[1] = Induction of H2S release in potassium phosphate buffer at pH 7.4 after 15 mins by methylene-blue assay; assay type: physicochemical; conditions: pH 7.4, 0.25 h
Oryctolagus cuniculus [2] = assay: Toxicity in New Zealand white rabbit assessed as heart weight at 1.79 umol/kg, administered as single bolus dose in presence of non selective adenosine receptor inhibitor SPT (reference value: 7.2 +/- 0.3 g); assay type: organism-based; conditions: in vivo
RLF-6 = assay: Induction of H2S release in RLF-6 cells assessed as cGMP accumulation at 250 uM after 5 mins by enzyme immuno assay; assay type: functional, cell-based; conditions: Rattus norvegicus
Oryctolagus cuniculus [3] = assay: Toxicity in New Zealand white rabbit myocardial ischemia/reperfusion injury model assessed as heart rate at 1.79 umol/kg, administered as single bolus dose at 20 mins of sustained ischemia (reference value: 276 +/- 9 bpm); assay type: organism-based; conditions: in vivo
Oryctolagus cuniculus [4] = assay: Toxicity in New Zealand white rabbit myocardial ischemia/reperfusion injury model assessed as mean blood pressure at 1.79 umol/kg, administered as single bolus dose at 180 mins of reperfusion (reference value: 60 +/- 4 mmHg); assay type: organism-based; conditions: in vivo, iv, 3 h
Oryctolagus cuniculus [5] = assay: Increase in PLN phosphorylation at Ser16/Thr17 in tissue from ischemic area of myocardium in New Zealand white rabbit myocardial ischemia/reperfusion injury model at 1.79 umol/kg administered as single bolus dose at 10th min of reperfusion by Western blot analysis relative to control; assay type: functional, organism-based
Oryctolagus cuniculus [6] = assay: Toxicity in New Zealand white rabbit myocardial ischemia/reperfusion injury model assessed as heart rate at 1.79 umol/kg, administered as single bolus dose at 180 mins of reperfusion (reference value: 254 +/- 11 bpm); assay type: organism-based; conditions: in vivo, 3 h
[7] = Induction of H2S release in potassium phosphate buffer at 20 uM at pH 7.4 by Amperometric method; assay type: physicochemical; conditions: pH 7.4, 20 µM
Oryctolagus cuniculus [8] = assay: Toxicity in New Zealand white rabbit assessed as baseline heart rate at 1.79 umol/kg, administered as single bolus dose (reference value: 269 +/- 10 bpm); assay type: organism-based; conditions: in vivo
Oryctolagus cuniculus [9] = assay: Toxicity in New Zealand white rabbit assessed as baseline mean blood pressure at 1.79 umol/kg, administered as single bolus dose (reference value: 74 +/- 5 mmHg); assay type: organism-based; conditions: in vivo
Oryctolagus cuniculus [10] = assay: Toxicity in New Zealand white rabbit assessed as baseline heart rate at 1.79 umol/kg, administered as single bolus dose in presence of non selective adenosine receptor inhibitor SPT (reference value: 269 +/- 10 bpm); assay type: organism-based; conditions: in vivo
Oryctolagus cuniculus [11] = assay: Toxicity in New Zealand white rabbit myocardial ischemia/reperfusion injury model assessed as heart rate at 1.79 umol/kg, administered as single bolus dose at 180 mins of reperfusion in presence of non selective adenosine receptor inhibitor SPT (reference value: 254 +/- 11 bpm); assay type: organism-based; conditions: in vivo, 3 h
[12] = Induction of H2S release in ammonium carbonate buffer at 100 uM at pH 7.4 by mass spectrometry; assay type: physicochemical; conditions: pH 7.4, 100 µM
Oryctolagus cuniculus [13] = assay: Increase in VASP phosphorylation at Ser239 in tissue from ischemic area of myocardium in New Zealand white rabbit myocardial ischemia/reperfusion injury model at 1.79 umol/kg administered as single bolus dose at 10th min of reperfusion by Western blot analysis; assay type: functional, organism-based
[14] = Induction of H2S release in potassium phosphate buffer at 100 uM at pH 7.4 by Amperometric method; assay type: physicochemical; conditions: pH 7.4, 100 µM
Oryctolagus cuniculus [15] = assay: Toxicity in New Zealand white rabbit myocardial ischemia/reperfusion injury model assessed as mean blood pressure at 1.79 umol/kg, administered as single bolus dose at 20 mins of sustained ischemia (reference value: 64 +/- 5 mmHg); assay type: organism-based; conditions: in vivo
[16] = Induction of H2S release in potassium phosphate buffer at 100 uM at pH 7.4 by Amperometric method in presence of glutathione; assay type: physicochemical; conditions: pH 7.4, 100 µM
Oryctolagus cuniculus [17] = assay: Toxicity in New Zealand white rabbit myocardial ischemia/reperfusion injury model assessed as mean blood pressure at 1.79 umol/kg, administered as single bolus dose at 20 mins of sustained ischemia in presence of non selective adenosine receptor inhibitor SPT (reference value: 64 +/- 5 mmHg); assay type: organism-based; conditions: in vivo, iv
[18] = Induction of H2S release in ammonium carbonate buffer at 100 uM at pH 7.4 by mass spectrometry in presence of glutathione; assay type: physicochemical; conditions: pH 7.4, 100 µM
Oryctolagus cuniculus [19] = assay: Toxicity in New Zealand white rabbit myocardial ischemia/reperfusion injury model assessed as mean blood pressure at 1.79 umol/kg, administered as single bolus dose at 180 mins of reperfusion in presence of SPT (reference value: 60 +/- 4 mmHg); assay type: organism-based; conditions: in vivo, 3 h
Oryctolagus cuniculus [20] = assay: Cardioprotective activity in New Zealand white rabbit myocardial ischemia/reperfusion injury model assessed as reduction in infarct size at 1.79 umol/kg, administered as single bolus dose at 20 mins before sustained ischemia by TTC staining in presence of non selective adenosine receptor inhibitor SPT (reference value: 47.9 +/- 0.7 %); assay type: functional, Myocardium; parameters: scale not given: the % may be the effect or the level left
Oryctolagus cuniculus [21] = assay: Toxicity in New Zealand white rabbit assessed as heart weight at 1.79 umol/kg, administered as single bolus dose (reference value: 7.2 +/- 0.3 g); assay type: organism-based; conditions: in vivo
Oryctolagus cuniculus [22] = assay: Cardioprotective activity in New Zealand white rabbit myocardial ischemia/reperfusion injury model assessed as reduction in infarct size at 1.79 umol/kg, administered as single bolus dose at 20th min of sustained ischemia by TTC staining (reference value: 47.9 +/- 0.7 %); assay type: functional, Myocardium; parameters: scale not given: the % may be the effect or the level left
Oryctolagus cuniculus [23] = assay: Toxicity in New Zealand white rabbit myocardial ischemia/reperfusion injury model assessed as heart rate at 1.79 umol/kg, administered as single bolus dose at 20 mins of sustained ischemia in presence of non selective adenosine receptor inhibitor SPT (reference value: 276 +/- 9 bpm); assay type: organism-based; conditions: in vivo
Oryctolagus cuniculus [24] = assay: Toxicity in New Zealand white rabbit assessed as baseline mean blood pressure at 1.79 umol/kg, administered as single bolus dose in presence of SPT (reference value: 74 +/- 5 mmHg); assay type: organism-based; conditions: in vivo
Oryctolagus cuniculus [25] = assay: Toxicity in New Zealand white rabbit myocardial ischemia/reperfusion injury model assessed as mean blood pressure at 3.58 umol/kg, administered as single bolus dose at 20 mins of sustained ischemia (reference value: 64 +/- 5 mmHg); assay type: organism-based; conditions: in vivo
Oryctolagus cuniculus [26] = assay: Toxicity in New Zealand white rabbit myocardial ischemia/reperfusion injury model assessed as heart rate at 3.58 umol/kg, administered as single bolus dose at 20 mins of sustained ischemia (reference value: 276 +/- 9 bpm); assay type: organism-based; conditions: in vivo
Oryctolagus cuniculus [27] = assay: Toxicity in New Zealand white rabbit myocardial ischemia/reperfusion injury model assessed as mean blood pressure at 3.58 umol/kg, administered as single bolus dose at 180 mins of reperfusion (reference value: 60 +/- 4 mmHg); assay type: organism-based; conditions: in vivo, 3 h
Oryctolagus cuniculus [28] = assay: Cardioprotective activity in New Zealand white rabbit myocardial ischemia/reperfusion injury model assessed as reduction in infarct size at 3.58 umol/kg, administered as single bolus dose at 20th min of sustained ischemia by TTC staining (reference value: 47.9 +/- 0.7 %); assay type: functional, Myocardium; parameters: scale not given: the % may be the effect or the level left
Oryctolagus cuniculus [29] = assay: Toxicity in New Zealand white rabbit assessed as heart weight at 3.58 umol/kg, administered as single bolus dose (reference value: 7.2 +/- 0.3 g); assay type: organism-based; conditions: in vivo
Oryctolagus cuniculus [30] = assay: Toxicity in New Zealand white rabbit myocardial ischemia/reperfusion injury model assessed as heart rate at 3.58 umol/kg, administered as single bolus dose at 180 mins of reperfusion (reference value: 254 +/- 11 bpm); assay type: organism-based; conditions: in vivo, 3 h
Oryctolagus cuniculus [31] = assay: Toxicity in New Zealand white rabbit assessed as baseline heart rate at 3.58 umol/kg, administered as single bolus dose (reference value: 269 +/- 10 bpm); assay type: organism-based; conditions: in vivo
Oryctolagus cuniculus [32] = assay: Toxicity in New Zealand white rabbit assessed as baseline mean blood pressure at 3.58 umol/kg, administered as single bolus dose (reference value: 74 +/- 5 mmHg); assay type: organism-based; conditions: in vivo

Row | Structure (SMILES) | Activity [1] | Activity (Oryctolagus cuniculus [2]) | Activity (RLF-6) | Activity (Oryctolagus cuniculus [3]) | Activity (Oryctolagus cuniculus [4]) | Activity (Oryctolagus cuniculus [5]) | Activity (Oryctolagus cuniculus [6]) | Activity (Oryctolagus cuniculus [8]) | Activity (Oryctolagus cuniculus [9]) | Activity (Oryctolagus cuniculus [10]) | Activity (Oryctolagus cuniculus [11]) | Activity (Oryctolagus cuniculus [13]) | Activity (Oryctolagus cuniculus [15]) | Activity (Oryctolagus cuniculus [17]) | Activity (Oryctolagus cuniculus [19]) | Activity (Oryctolagus cuniculus [20]) | Activity (Oryctolagus cuniculus [21]) | Activity (Oryctolagus cuniculus [22]) | Activity (Oryctolagus cuniculus [23]) | Activity (Oryctolagus cuniculus [24]) | further results
1 | Nc1ncnc2c1ncn2CCCCOc1ccc(-c2cc(=S)ss2)cc1 | Dose-dependent effect | – | – | – | – | – | – | – | – | – | – | – | – | – | – | – | – | – | – | – | –
2 | NC(=S)c1ccc(OC[C@H]2O[C@@H](n3cnc4c(N)ncnc43)[C@H](O)[C@@H]2O)cc1 | Dose-dependent effect | 7.2 g | Active | 256 bpm | 76 mmHg | Active | 256 bpm | 258 bpm | 82 mmHg | 262 bpm | 260 bpm | Active | 83 mmHg | 71 mmHg | 77 mmHg | 18.3% | 7.6 g | 20.1% | 260 bpm | 86 mmHg | Activity [7]: Not Active; Activity [12]: 0.8 µM/min; Activity [14]: Active; Activity [16]: Not Active; Activity [18]: Not Active
3 | CC1(C)O[C@@H]2[C@H](O1)[C@@H](COc1ccc(-c3cc(=S)ss3)cc1)O[C@H]2n1cnc2c(N)ncnc21 | Dose-dependent effect | – | – | – | – | – | – | – | – | – | – | – | – | – | – | – | – | – | – | – | –
4 | NC(=S)c1ccc(OCCCCn2cnc3c(N)ncnc32)cc1 | Dose-dependent effect | 7.5 g | Active | 276 bpm | 80 mmHg | Active | 255 bpm | 266 bpm | 90 mmHg | 278 bpm | 276 bpm | Active | 82 mmHg | 76 mmHg | 76 mmHg | 16.9% | 7.2 g | 16.6% | 270 bpm | 81 mmHg | Activity (Oryctolagus cuniculus [25]): 40 mmHg; Activity (Oryctolagus cuniculus [26]): 242 bpm; Activity (Oryctolagus cuniculus [27]): 52 mmHg; Activity (Oryctolagus cuniculus [28]): 26.7%; Activity (Oryctolagus cuniculus [29]): 7.4 g; Activity (Oryctolagus cuniculus [30]): 258 bpm; Activity (Oryctolagus cuniculus [31]): 285 bpm; Activity (Oryctolagus cuniculus [32]): 78 mmHg
5 | NC(=S)c1ccc(O)cc1 | – | – | Active | – | – | – | – | – | – | – | – | – | – | – | – | – | – | 24.9% | – | – | –
6 | Nc1ncnc2c1ncn2[C@@H]1O[C@H](COc2ccc(-c3cc(=S)ss3)cc2)[C@@H](O)[C@H]1O | Dose-dependent effect | – | – | – | – | – | – | – | – | – | – | – | – | – | – | – | – | – | – | – | –
